Drawing on ChEMBL document CHEMBL3991601, “The target landscape of clinical kinase drugs” (Science, 2017), this text covers Kd for 16 molecules.

Broadly, the Kd is a measure of binding affinity in units of concentration.

The target of one assay is T1, Glycine--tRNA ligase (Homo sapiens, UniProt P41250).
T1 sequence (P41250 whole entry): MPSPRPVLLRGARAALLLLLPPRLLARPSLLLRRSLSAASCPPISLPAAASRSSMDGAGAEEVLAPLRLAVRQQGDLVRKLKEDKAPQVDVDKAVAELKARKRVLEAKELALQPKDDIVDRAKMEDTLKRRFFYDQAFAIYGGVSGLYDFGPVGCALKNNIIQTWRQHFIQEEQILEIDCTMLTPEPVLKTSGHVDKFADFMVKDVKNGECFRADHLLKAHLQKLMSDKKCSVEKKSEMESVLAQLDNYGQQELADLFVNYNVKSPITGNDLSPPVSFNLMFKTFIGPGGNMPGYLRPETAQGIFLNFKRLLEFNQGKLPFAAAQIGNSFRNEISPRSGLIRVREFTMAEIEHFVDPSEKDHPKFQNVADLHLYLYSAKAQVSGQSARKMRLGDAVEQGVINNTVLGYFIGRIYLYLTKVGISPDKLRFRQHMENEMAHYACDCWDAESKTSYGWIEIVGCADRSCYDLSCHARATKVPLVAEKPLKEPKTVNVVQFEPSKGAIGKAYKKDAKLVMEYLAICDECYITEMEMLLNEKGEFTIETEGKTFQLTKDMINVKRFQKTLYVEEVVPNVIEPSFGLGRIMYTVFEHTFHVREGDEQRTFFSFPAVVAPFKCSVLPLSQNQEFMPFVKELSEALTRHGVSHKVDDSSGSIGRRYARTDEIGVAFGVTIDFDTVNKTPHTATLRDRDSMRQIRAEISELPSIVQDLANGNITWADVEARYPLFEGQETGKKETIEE

For assay [1], the target named is T2, Thyroid hormone receptor-associated protein 3 (Homo sapiens, UniProt Q9Y2W1).
T2 sequence (Q9Y2W1 whole entry): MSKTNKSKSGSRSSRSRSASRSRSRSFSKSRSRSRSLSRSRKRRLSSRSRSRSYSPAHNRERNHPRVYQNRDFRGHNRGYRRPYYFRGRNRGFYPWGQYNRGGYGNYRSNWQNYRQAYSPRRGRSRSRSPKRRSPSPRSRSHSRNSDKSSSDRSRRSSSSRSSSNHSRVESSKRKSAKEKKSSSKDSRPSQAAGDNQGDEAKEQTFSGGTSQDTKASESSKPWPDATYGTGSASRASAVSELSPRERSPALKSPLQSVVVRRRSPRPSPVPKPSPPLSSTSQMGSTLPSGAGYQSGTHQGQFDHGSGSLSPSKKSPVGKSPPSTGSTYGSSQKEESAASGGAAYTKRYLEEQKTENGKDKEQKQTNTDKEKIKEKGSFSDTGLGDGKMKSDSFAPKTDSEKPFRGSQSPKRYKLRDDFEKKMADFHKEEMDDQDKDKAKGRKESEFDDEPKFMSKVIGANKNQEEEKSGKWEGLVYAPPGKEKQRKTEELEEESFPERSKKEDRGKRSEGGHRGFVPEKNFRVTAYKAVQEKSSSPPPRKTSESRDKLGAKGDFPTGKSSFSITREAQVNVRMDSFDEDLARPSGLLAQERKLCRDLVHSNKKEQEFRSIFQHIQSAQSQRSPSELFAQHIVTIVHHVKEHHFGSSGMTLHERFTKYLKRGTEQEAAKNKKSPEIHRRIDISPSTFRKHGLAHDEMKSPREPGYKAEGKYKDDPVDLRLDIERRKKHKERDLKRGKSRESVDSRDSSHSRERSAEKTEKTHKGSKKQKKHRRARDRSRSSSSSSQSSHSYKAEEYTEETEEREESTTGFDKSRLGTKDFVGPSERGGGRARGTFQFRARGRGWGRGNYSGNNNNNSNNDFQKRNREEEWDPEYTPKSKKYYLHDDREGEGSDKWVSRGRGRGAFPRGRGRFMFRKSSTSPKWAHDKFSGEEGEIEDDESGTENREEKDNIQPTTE

Assay [2] deals with Protein kinase C alpha type (Homo sapiens, UniProt P17252).
The target of the next assay is T3, ADP/ATP translocase 2 (Homo sapiens, UniProt P05141).
T3 sequence (P05141 whole entry): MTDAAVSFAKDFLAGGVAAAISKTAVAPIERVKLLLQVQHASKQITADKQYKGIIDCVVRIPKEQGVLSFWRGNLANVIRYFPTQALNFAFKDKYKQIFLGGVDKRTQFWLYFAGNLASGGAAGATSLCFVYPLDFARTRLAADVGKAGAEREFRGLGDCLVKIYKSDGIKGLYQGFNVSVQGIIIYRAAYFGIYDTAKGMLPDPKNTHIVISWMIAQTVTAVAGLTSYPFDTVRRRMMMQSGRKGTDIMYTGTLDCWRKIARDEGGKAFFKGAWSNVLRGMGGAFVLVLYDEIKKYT

Assay [3] deals with cAMP-dependent protein kinase catalytic subunit beta (Homo sapiens, UniProt P22694).
The target of assay [4] is Calcium/calmodulin-dependent protein kinase type II subunit gamma (Homo sapiens, UniProt Q13555).
The target of a further assay is Focal adhesion kinase 1 (Homo sapiens, UniProt Q05397).
The target in assay [5] is Tyrosine-protein kinase FRK (Homo sapiens, UniProt P42685).
The target in assay [6] is Dual specificity mitogen-activated protein kinase kinase 1 (Homo sapiens, UniProt Q02750).

Activity calls are given as the source filed them. Rule as the data show it, for most assays here: actives have a measured Kd and inactives only a lower limit.
Also: in the data inactive means no Kd found up to 30 µM.

Tyrosine-protein kinase FRK, sequence (P42685 whole entry): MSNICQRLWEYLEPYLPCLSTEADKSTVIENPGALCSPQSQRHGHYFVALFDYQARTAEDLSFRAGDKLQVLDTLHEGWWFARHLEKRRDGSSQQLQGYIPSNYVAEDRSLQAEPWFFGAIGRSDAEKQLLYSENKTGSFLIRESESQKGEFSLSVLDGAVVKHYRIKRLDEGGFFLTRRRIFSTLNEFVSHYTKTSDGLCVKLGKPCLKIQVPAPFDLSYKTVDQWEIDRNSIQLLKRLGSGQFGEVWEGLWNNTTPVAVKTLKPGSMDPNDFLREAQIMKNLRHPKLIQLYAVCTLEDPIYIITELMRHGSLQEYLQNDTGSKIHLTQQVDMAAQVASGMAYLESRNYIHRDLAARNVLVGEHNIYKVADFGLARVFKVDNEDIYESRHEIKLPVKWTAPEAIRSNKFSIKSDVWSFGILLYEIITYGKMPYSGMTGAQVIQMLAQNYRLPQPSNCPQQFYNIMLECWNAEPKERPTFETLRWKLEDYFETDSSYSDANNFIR
Calcium/calmodulin-dependent protein kinase type II subunit gamma, sequence (Q13555 whole entry): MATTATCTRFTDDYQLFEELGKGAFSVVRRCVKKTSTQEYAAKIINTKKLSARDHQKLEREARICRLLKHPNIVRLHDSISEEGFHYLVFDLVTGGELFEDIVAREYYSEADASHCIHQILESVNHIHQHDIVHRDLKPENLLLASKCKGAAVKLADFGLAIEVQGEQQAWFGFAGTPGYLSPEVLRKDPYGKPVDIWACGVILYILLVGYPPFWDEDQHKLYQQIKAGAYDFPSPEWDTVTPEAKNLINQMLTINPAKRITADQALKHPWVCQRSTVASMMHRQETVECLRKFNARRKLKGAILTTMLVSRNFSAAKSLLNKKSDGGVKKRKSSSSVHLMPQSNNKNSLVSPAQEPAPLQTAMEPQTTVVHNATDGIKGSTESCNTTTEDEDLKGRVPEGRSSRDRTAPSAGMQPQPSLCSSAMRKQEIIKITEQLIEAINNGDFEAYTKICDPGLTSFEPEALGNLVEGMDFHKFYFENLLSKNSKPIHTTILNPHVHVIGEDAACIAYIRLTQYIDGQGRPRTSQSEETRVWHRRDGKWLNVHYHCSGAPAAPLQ
Focal adhesion kinase 1, sequence (Q05397 whole entry): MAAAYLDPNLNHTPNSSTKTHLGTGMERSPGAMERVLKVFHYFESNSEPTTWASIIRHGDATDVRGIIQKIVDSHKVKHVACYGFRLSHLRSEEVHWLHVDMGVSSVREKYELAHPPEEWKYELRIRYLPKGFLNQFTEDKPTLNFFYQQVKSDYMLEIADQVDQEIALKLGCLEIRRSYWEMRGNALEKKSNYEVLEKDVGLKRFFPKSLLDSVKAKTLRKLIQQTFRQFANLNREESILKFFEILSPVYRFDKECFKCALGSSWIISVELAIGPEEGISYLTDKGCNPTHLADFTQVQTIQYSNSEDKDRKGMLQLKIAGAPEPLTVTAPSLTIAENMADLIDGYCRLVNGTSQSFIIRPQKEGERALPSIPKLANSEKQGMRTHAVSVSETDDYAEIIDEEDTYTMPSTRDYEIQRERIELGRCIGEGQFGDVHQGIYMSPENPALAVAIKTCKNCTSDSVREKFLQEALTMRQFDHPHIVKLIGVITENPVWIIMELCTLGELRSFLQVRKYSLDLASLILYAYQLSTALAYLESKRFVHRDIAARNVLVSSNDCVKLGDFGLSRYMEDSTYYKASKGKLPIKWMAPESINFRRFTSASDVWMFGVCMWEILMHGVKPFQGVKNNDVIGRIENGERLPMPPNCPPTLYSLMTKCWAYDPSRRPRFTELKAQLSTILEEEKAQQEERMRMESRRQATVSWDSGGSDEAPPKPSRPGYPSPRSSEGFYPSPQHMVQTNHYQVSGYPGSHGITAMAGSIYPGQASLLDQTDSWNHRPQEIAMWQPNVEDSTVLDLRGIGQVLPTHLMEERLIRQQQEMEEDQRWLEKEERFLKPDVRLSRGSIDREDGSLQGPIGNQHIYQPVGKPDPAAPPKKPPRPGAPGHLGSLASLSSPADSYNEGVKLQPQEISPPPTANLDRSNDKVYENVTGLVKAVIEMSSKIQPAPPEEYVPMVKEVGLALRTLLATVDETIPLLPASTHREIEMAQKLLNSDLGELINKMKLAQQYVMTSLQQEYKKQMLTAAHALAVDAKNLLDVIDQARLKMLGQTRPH
Dual specificity mitogen-activated protein kinase kinase 1, sequence (Q02750 whole entry): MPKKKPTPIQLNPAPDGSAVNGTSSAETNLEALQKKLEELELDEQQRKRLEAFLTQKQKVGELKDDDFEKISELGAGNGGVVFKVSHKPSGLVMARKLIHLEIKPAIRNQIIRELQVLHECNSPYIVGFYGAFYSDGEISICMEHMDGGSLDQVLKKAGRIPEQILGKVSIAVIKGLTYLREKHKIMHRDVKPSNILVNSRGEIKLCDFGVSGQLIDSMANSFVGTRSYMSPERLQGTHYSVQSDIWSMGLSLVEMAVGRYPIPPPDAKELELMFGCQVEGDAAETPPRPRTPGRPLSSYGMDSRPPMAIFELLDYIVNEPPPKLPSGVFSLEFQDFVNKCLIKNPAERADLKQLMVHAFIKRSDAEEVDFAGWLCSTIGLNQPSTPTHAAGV

On to `COc1cc(Nc2ncc3c(n2)-c2ccc(Cl)cc2C(c2c(F)cccc2OC)=NC3)ccc1C(=O)O` [ALISERTIB], for which the Kd (on Glycine--tRNA ligase; in assay [1]; in assay [2]; on ADP/ATP translocase 2; in [3]) was > 30 µM (inactive) throughout.

As to `CNC(=O)c1ccccc1Sc1ccc2c(/C=C/c3ccccn3)n[nH]c2c1` [AXITINIB], the Kd (at Glycine--tRNA ligase; in assay [1]; in assay [2]; at ADP/ATP translocase 2) was > 30 µM (inactive) in each case.

Turning to `Cc1cccc(-c2nn3c(c2-c2ccnc4ccc(C(N)=O)cc24)CCC3)n1` [GALUNISERTIB], the Kd (at Glycine--tRNA ligase; in assay [4]; at Focal adhesion kinase 1; in assay [5]; in assay [2]; on ADP/ATP translocase 2) was > 30 µM (inactive) in each case. Also, the Kd in assay [6] and in assay [3] was > 30 µM (inactive) each time.

Take `C[C@@H](Oc1cc(-n2cnc3ccc(CN4CCN(C)CC4)cc32)sc1C(N)=O)c1ccccc1C(F)(F)F` [GSK-461364]: the Kd (on Glycine--tRNA ligase; in [1]; in assay [2]; on ADP/ATP translocase 2) was > 30 µM (inactive) each time.

On to `CCn1cc(-c2ccnc3[nH]c(-c4cccc(CN(C)C)c4)cc23)c(-c2ccc(NC(=O)N(C)C)cc2)n1` [GSK-1070916], for which the Kd (on Glycine--tRNA ligase; in assay [4]; on Focal adhesion kinase 1; in [5]; in assay [2]; at ADP/ATP translocase 2) was > 30 µM (inactive) each time. Also, the Kd in assay [6] and in [3] was > 30 µM (inactive) each time.

Turning to `CNC(=O)c1cccc2cc(Oc3ccnc4cc(OCC5(N)CC5)c(OC)cc34)ccc12` [LUCITANIB], the Kd (at Glycine--tRNA ligase; in [4]; on Focal adhesion kinase 1; in [5]; in [2]; on ADP/ATP translocase 2) was > 30 µM (inactive) in each case. The Kd in assay [6] and in assay [3] was > 30 µM (inactive) in each case.

Regarding `CNC(=O)c1nn(C)c2c1C(C)(C)Cc1cnc(Nc3ccc(N4CCN(C)CC4)cc3)nc1-2` [MILCICLIB], the Kd on Glycine--tRNA ligase was > 30 µM (inactive); in assay [4] it was > 30 µM (inactive); on Focal adhesion kinase 1, > 30 µM (inactive); in [5], 3.02 µM (active); in [2], > 30 µM (inactive); at ADP/ATP translocase 2, > 30 µM (inactive). For the same molecule, the Kd in assay [6] and in assay [3] was > 30 µM (inactive) each time.

In the case of `CN(C[C@@H]1COCCO1)S(=O)(=O)Nc1ccc2ccc3ncc(-c4cnn(C)c4)cc3c(=O)c2c1` [MK-2461], the Kd (on Glycine--tRNA ligase; in assay [4]; at Focal adhesion kinase 1; in [5]; in [2]; on ADP/ATP translocase 2) was > 30 µM (inactive) throughout. Moreover, the Kd in assay [6] and in [3] was > 30 µM (inactive) in each case.

On to `COc1ncc(-c2ccc3nccc(-c4ccnnc4)c3c2)cc1NS(=O)(=O)c1ccc(F)cc1F` [OMIPALISIB], for which the Kd (on Glycine--tRNA ligase; in assay [4]; at Focal adhesion kinase 1; in assay [5]; in [2]; at ADP/ATP translocase 2) was > 30 µM (inactive) each time. Further, the Kd in [6] and in assay [3] was > 30 µM (inactive) each time.

`Cc1[nH]c(/C=C2\C(=O)Nc3ccccc32)c(C)c1CCC(=O)O` [ORANTINIB]: the Kd is > 30 µM (inactive) at Glycine--tRNA ligase; > 30 µM (inactive) in assay [1]; > 30 µM (inactive) in [2]; > 30 µM (inactive) at ADP/ATP translocase 2; 3.43 µM (active) in [6]; > 30 µM (inactive) in assay [3].

`NC(=O)c1c(OCc2c(F)cc(Br)cc2F)nsc1NC(=O)NCCCCN1CCCC1` [OSI-632]: the Kd (at Glycine--tRNA ligase; in assay [1]; in assay [2]; on ADP/ATP translocase 2) was > 30 µM (inactive) each time.

As to `CC(=O)NCC(=O)N1[C@@H]2CC[C@H]1c1ccc(Nc3ncc(C(F)(F)F)c(NC4CCC4)n3)cc12` [PF-03814735], the Kd (at Glycine--tRNA ligase; in assay [1]; in assay [2]; on ADP/ATP translocase 2; in assay [3]) was > 30 µM (inactive) each time.

Consider `N#CC[C@H](C1CCCC1)n1cc(-c2ncnc3[nH]ccc23)cn1` [RUXOLITINIB], for which the Kd on Glycine--tRNA ligase was > 30 µM (inactive); in assay [4] it was 0.259 µM (active); in [1], > 30 µM (inactive); in [2], 16.5 µM (active); on ADP/ATP translocase 2 it was > 30 µM (inactive).

As to `CCS(=O)(=O)c1cccc(-c2cc(C(=O)NC3CCN(C)CC3)c(C)c3[nH]c4ncc(C)cc4c23)c1` [TAK-901], the Kd is > 30 µM (inactive) at Glycine--tRNA ligase; > 30 µM (inactive) in assay [4]; 0.264 µM (active) at Focal adhesion kinase 1; 0.222 µM (active) in [5]; 1.61 µM (active) in [2]; > 30 µM (inactive) on ADP/ATP translocase 2. Also, the Kd in assay [6] and in assay [3] was > 30 µM (inactive) throughout.

`Cn1ncc(Cl)c1-c1cc(C(=O)N[C@H](CN)Cc2ccc(F)c(F)c2)oc1Cl` [UPROSERTIB]: the Kd at Glycine--tRNA ligase is > 30 µM (inactive); in assay [4], > 30 µM (inactive); on Focal adhesion kinase 1 it was > 30 µM (inactive); in [5], > 30 µM (inactive); in assay [2], 1.67 µM (active); on ADP/ATP translocase 2 it was > 30 µM (inactive). Further, the Kd in assay [6] was > 30 µM (inactive); in assay [3] it was 0.049 µM (active).

With `C[C@@H](N)c1ccc(C(=O)Nc2ccnc3[nH]ccc23)cc1` [Y-39983], the Kd at Glycine--tRNA ligase is > 30 µM (inactive); in assay [4], > 30 µM (inactive); on Focal adhesion kinase 1, > 30 µM (inactive); in assay [5] it was > 30 µM (inactive); in [2], 3.28 µM (active); at ADP/ATP translocase 2, > 30 µM (inactive). Besides, the Kd in assay [6] and in assay [3] was > 30 µM (inactive) each time.
